Source: publication PMC6812656 (Cancer cell, 2019)

Tests used:
ALKBH5 [1] = biological target: T1, ALKBH5 (Homo sapiens, UniProt Q6P6C2); test: HPLC-based assay of inhibition of ALKBH5 m6A demethylation in RNA; format: biochemical
Target sequence in this assay (Q6P6C2 67-394 limits assumed): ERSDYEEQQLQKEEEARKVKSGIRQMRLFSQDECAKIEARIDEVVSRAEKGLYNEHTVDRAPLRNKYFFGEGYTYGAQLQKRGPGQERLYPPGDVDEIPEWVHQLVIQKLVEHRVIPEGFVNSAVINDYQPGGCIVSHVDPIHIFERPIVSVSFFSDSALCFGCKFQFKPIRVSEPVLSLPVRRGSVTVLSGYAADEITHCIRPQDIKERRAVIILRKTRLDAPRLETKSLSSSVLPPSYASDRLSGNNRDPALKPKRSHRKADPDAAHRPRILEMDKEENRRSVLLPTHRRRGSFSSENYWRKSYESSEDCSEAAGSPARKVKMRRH

NB4 cells [2] = test: Cell proliferation assay, NB4; format: cell-based; conditions: Homo sapiens, NB-4, 72 h, read-out: IC50, proliferation
MONOMAC6 cells [3] = test: Cell proliferation assay, MONOMAC6; format: cell-based; conditions: Homo sapiens, MONO-MAC-6, 72 h, read-out: IC50, proliferation
NB4 cells [4] = test: Cellular uptake by LC-MS/MS quantitation, NB4; format: cell-based, human; conditions: 10 μM for 24 hr
MONOMAC6 cells [5] = test: Cellular uptake by LC-MS/MS quantitation, MONOMAC6; format: cell-based, human; conditions: 10 μM for 24 hr
[6] = tested on: HDAC, DOTL1, BRD, LSD1 and Jumonji domain-containing histone demethylases; test: Inhibition of epigenetic enzymes in vitro; format: biochemical
COX-1 = biological target: T2, COX-1 (Ovis aries, UniProt P05979); test: COX fluorescent inhibitor screening assay, COX-1; format: biochemical; conditions: even at 50 μM
T2 sequence (P05979 25-600): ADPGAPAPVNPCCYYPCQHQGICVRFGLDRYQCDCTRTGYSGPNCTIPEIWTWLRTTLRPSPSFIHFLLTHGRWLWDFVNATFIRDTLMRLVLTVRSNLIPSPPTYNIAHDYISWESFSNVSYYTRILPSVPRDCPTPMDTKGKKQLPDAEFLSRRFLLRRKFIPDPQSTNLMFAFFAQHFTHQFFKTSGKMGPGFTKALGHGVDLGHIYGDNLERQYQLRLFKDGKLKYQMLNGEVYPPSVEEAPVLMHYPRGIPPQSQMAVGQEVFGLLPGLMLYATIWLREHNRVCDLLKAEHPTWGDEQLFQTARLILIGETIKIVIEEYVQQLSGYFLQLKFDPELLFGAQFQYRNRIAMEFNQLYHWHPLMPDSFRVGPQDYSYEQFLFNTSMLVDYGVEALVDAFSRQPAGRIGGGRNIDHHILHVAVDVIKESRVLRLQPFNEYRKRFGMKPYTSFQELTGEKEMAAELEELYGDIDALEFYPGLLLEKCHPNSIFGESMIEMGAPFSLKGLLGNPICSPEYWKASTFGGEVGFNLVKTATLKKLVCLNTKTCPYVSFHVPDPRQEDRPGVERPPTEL

COX-2 = biological target: T3, COX-2 (Homo sapiens, UniProt P35354); test: COX fluorescent inhibitor screening assay, COX-2; format: biochemical; conditions: even at 50 μM
T3 sequence (P35354 18-604): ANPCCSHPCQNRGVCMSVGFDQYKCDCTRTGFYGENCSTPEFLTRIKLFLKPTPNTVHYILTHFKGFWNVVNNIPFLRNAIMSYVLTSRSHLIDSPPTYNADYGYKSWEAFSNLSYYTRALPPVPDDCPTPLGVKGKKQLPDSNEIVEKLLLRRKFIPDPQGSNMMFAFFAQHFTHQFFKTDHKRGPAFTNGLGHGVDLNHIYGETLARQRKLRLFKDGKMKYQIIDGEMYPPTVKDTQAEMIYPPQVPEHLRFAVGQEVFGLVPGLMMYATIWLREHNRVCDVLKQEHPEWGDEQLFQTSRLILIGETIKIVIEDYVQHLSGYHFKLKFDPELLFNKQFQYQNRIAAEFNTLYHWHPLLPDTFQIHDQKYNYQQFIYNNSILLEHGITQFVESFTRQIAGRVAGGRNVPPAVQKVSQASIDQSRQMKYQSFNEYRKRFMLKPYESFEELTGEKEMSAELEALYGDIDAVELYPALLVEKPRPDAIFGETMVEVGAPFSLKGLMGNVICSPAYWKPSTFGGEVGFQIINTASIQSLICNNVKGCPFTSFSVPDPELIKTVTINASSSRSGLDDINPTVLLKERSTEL

FTO [7] = biological target: T4, FTO (Homo sapiens, UniProt Q9C0B1); test: HPLC-based assay of inhibition of FTO m6A demethylation in RNA; format: biochemical; conditions: HPLC quantification
Target sequence in this assay (Q9C0B1 32-505 limits assumed): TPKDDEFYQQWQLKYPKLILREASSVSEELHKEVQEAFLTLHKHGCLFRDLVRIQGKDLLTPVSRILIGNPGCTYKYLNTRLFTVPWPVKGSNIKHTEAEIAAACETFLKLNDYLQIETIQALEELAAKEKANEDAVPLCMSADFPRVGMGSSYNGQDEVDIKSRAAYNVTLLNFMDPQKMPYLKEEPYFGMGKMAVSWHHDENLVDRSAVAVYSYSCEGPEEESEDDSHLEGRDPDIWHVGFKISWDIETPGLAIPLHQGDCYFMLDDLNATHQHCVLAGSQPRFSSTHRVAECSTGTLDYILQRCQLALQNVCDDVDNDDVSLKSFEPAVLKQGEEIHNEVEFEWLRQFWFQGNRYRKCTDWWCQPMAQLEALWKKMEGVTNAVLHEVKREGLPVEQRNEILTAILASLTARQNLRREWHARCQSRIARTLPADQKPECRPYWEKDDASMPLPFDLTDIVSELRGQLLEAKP

NB4 and MONOMAC6 cells = test: Cell proliferation assay, NB4 and MONOMAC6; format: cell-based; conditions: Homo sapiens, MONO-MAC-6, 72 h, read-out: IC50, anti-proliferative activity
[8] = tested on: MA9.3ITD, MA9.3RAS, U937, ML-2 and MV4-11 AML cell lines; test: Cell proliferation assay, panel of additional AML cell lines; format: cell-based; conditions: Homo sapiens, 96 h, read-out: IC50, proliferation
human primary AML cells = test: Cell proliferation assay, primary AML cells from four patients; format: cell-based; conditions: 96 h, read-out: IC50, proliferation of primary AML cells
[9] = tested on: human normal bone marrow (BM) cells; test: Proliferation of normal bone marrow cells; format: cell-based; conditions: BM cells from a healthy donor
FTO [10] = biological target: T4, FTO; test: DARTS assay for FTO in AML cell lysates; format: binding; conditions: 50, 200, 500 μM
Target sequence in this assay (Q9C0B1 whole entry): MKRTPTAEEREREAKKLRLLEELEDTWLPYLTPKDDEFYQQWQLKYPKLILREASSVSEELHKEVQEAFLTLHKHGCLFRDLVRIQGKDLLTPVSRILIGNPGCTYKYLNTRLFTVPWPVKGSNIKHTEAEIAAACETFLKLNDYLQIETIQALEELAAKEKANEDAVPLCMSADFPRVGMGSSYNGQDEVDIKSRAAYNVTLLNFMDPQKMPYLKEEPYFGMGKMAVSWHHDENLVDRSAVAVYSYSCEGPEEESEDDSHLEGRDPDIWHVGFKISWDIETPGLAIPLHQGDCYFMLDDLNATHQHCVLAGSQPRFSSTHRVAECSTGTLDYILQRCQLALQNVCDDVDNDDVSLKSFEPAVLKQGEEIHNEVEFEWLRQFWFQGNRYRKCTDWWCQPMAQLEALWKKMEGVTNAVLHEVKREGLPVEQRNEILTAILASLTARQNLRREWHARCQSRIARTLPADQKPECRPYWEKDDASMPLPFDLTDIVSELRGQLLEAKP

ALKBH5 [11] = biological target: T1, ALKBH5; test: DARTS assay for ALKBH5 in AML cell lysates; format: binding
Target sequence in this assay (Q6P6C2 whole entry): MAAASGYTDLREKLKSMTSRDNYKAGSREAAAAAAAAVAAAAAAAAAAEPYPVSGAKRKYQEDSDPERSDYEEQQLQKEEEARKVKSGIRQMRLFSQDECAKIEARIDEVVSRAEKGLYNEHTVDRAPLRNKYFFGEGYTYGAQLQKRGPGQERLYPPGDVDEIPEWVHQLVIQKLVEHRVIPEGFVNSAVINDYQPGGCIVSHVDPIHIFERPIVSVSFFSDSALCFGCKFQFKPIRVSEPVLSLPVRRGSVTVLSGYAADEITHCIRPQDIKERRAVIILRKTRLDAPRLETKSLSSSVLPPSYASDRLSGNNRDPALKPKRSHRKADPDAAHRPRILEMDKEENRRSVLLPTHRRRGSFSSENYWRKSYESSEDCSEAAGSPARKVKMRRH

TET1 protein = biological target: T5, TET1 protein (Homo sapiens, UniProt Q8NFU7); test: TET1 enzyme activity in vitro; format: biochemical; conditions: 20 μM
T5 sequence (Q8NFU7 1418-2136 limits assumed): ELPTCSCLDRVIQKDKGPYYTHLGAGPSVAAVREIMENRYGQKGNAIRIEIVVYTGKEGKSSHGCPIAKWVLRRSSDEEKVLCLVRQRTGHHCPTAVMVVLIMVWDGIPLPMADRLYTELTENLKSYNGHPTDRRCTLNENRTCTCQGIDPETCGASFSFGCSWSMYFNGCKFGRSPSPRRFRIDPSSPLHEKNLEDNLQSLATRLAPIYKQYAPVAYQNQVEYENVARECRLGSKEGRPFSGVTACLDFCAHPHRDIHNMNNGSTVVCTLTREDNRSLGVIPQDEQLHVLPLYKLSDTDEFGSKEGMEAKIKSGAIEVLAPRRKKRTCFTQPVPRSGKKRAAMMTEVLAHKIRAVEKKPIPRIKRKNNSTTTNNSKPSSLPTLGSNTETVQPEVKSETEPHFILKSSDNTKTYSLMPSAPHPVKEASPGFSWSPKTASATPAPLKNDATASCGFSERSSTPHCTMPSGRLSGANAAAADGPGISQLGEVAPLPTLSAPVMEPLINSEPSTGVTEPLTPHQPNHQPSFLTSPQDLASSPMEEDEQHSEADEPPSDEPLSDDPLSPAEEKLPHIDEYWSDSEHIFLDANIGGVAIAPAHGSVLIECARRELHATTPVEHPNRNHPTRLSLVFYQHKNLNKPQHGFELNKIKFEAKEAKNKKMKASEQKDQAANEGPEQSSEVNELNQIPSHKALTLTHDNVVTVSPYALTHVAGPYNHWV

oncogenic proteases = test: Protease profiling; format: biochemical, human; conditions: 1 μM or 10 μM
[12] = tested on: m6A peaks in mRNA of MONOMAC6 AML cells; test: m6A-seq in MONOMAC6 cells; format: cell-based, human; conditions: 5 μM, 72 hr, peaks identified in both DMSO and treated groups
[13] = Toxicity study in BALB/c mice; format: in vivo; conditions: 20 mg/kg i.p. daily for 14 days
[14] = Pharmacokinetics in SD rats; format: in vivo; conditions: male, Sprague Dawley, rat, plasma, ip, 3 mg/kg
[15] = Microsomal stability assay; format: in vitro ADME; conditions: SD, rat, liver microsomes
MONOMAC6 AML cells = test: MONOMAC6 xeno-transplantation leukemic model; format: in vivo, NSGS mice; conditions: 2 mg/kg i.p. daily for 10 days, from 10 days post xeno-transplantation
[16] = tested on: primary AML cells (patient Pt 2017_63); test: PDX AML mouse model; conditions: 6 mg/kg/day i.p. for 17 days
[17] = tested on: functional primary AML LSCs; test: Secondary transplantation of PDX AML cells; conditions: AML cells from primary FB23-2-treated PDX mice

Cc1noc(C)c1-c1cc(Cl)c(Nc2ccccc2C(=O)O)c(Cl)c1 [FB23, 2-((2,6-dichloro-4-(3,5-dimethylisoxazol-4-yl)phenyl)amino)benzoic acid]
inhibition of ALKBH5 demethylation in vitro (ALKBH5 [1]): neither FB23 nor FB23-2 inhibits
IC50 (NB4 cells [2]): 44.8 µM
IC50 (MONOMAC6 cells [3]): 23.6 µM
intracellular concentration (NB4 cells [4]): 0.02 nmol/million
intracellular concentration (MONOMAC6 cells [5]): 0.015 nmol/million
effect on activities of epigenetic targets in vitro [6]: slightly attenuated
inhibition of COX-1 (COX-1): neither FB23 nor FB23-2 was observed to significantly inhibit
inhibition of COX-2 (COX-2): neither FB23 nor FB23-2 was observed to significantly inhibit

Cc1noc(C)c1-c1cc(Cl)c(Nc2ccccc2C(=O)NO)c(Cl)c1 [FB23-2, 2-((2,6-dichloro-4-(3,5-dimethylisoxazol-4-yl)phenyl)amino)-N-hydroxybenzamide]
inhibitory activity on FTO demethylation in vitro (FTO [7]): maintains inhibitory activity
inhibition of ALKBH5 demethylation in vitro (ALKBH5 [1]): neither FB23 nor FB23-2 inhibits
IC50 (NB4 and MONOMAC6 cells): 0.8 to 1.5 µM
IC50 [8]: 1.9 to 5.2 µM
IC50 (human primary AML cells): 1.6 to 16 µM
effect on proliferation of normal BM cells [9]: minimally altered proliferation
protease resistance of FTO protein (DARTS) (FTO [10]): protease-resistant
direct binding to ALKBH5 (DARTS) (ALKBH5 [11]): could not directly bind
effect on activities of epigenetic targets in vitro [6]: slightly attenuated
inhibition of TET1 protein in vitro (TET1 protein): minimally inhibited
inhibition of oncogenic proteases (oncogenic proteases): barely inhibited
inhibition of COX-1 (COX-1): neither FB23 nor FB23-2 was observed to significantly inhibit
inhibition of COX-2 (COX-2): neither FB23 nor FB23-2 was observed to significantly inhibit
share of m6A peaks increased upon treatment [12]: 62.1%
body weight loss [13]: no evidence of body weight loss
hematopoiesis (hematology and plasma biochemistry) vs vehicle [13]: no significant difference
physical damage on organs [13]: nor was any physical damage observed
AUC(0-t) [14]: 2180 ± 152 ng·h/mL
Cmax [14]: 2420 ± 90.9 ng/mL
Tmax [14]: 4.8 min
half-life [14]: 6.7 ± 1.3 h
CLint scaled at 3 μM [15]: 19.7 mL/min/kg
half-life at 3 μM [15]: 2.13 h
survival of leukemic mice (MONOMAC6 AML cells): almost doubling the median survival
median survival time [16]: 58 days
secondary PDX mice still surviving after 100 days [17]: 50%
